Test results from patent publication US6767907B2, “4-aryl-1-(indanmethyl dihydrobenzofuranmethyl or dihydrobenzothiophenemethyl) piperidines tetrahydropyridines or piperazines” (H. Lundbeck A/S, priority 1994, dated 2004).
Read-outs that look alike come from different tables or passages of the source.

Columns and labels:
5-HT1A receptors = target: T1, 5-HT1A receptors (Rattus norvegicus, UniProt P19327); assay: Inhibition of 3H-8-OH-DPAT binding to serotonin 5-HT1A receptors in rat brain in vitro; details: for inhibition at 0.1 µM: read-out: 3H 8-OH DPAT (5-HT1A) binding, % inhibition of binding at 100 nM, at 100 nM, rat brain membranes
T1 construct: 5-HT1A receptors in membranes from rat brain minus cerebellum; from tissue; host or cells: rat brain minus cerebellum, membranes
T1 sequence (P19327 1-422): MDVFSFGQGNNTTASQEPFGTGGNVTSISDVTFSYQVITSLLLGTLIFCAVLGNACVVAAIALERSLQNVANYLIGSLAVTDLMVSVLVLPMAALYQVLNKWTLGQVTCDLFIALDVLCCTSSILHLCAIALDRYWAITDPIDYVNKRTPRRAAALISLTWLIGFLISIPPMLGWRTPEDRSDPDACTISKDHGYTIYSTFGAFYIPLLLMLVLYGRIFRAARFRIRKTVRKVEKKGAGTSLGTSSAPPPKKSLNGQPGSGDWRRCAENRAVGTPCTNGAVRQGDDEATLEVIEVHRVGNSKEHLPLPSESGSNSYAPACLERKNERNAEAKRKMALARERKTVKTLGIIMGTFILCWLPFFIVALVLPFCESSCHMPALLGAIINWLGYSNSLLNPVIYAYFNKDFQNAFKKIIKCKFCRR
Procedure: By this method the inhibition by drugs of the binding of the 5-HT1A agonist ^3H-8-OH-DPAT (1 nM) to 5-HT1A receptors in membranes from rat brain minus cerebellum is determined in vitro . Accordingly, this is a test for affinity for the 5-HT1A receptor. The test is performed as described by Hyttel et al., Drug. Dev. Res., 1988, 15, 389-404.

5-HT2A receptors = target: T2, 5-HT2A receptors (Rattus norvegicus, UniProt P14842); assay: Inhibition of 3H-Ketanserin binding to 5-HT2 receptors in rat cortex in vitro; details: 3H-Ketanserin 0.5 nM; for IC50: membranes from rat cortex, read-out: 3H Ketanserin (5-HT2A) binding, IC50
T2 construct: 5-HT2A receptors in membranes from rat is determined in vitro; from tissue; host or cells: rat cortex membranes
Procedure: Inhibition of ^3H-Ketanserin Binding to 5-HT2 Receptors in Rat Cortex in vitro.
By this method the inhibition by drugs of the binding of ^3H-Ketanserin (0.5 nM) to 5-HT2A receptors in membranes from rat is determined in vitro .

[1] = 3H-8-OH-DPAT 1 nM, membranes from rat brain minus cerebellum, read-out: 3H 8-OH DPAT (5-HT1A) binding, IC50

T2 sequence (P14842 whole entry): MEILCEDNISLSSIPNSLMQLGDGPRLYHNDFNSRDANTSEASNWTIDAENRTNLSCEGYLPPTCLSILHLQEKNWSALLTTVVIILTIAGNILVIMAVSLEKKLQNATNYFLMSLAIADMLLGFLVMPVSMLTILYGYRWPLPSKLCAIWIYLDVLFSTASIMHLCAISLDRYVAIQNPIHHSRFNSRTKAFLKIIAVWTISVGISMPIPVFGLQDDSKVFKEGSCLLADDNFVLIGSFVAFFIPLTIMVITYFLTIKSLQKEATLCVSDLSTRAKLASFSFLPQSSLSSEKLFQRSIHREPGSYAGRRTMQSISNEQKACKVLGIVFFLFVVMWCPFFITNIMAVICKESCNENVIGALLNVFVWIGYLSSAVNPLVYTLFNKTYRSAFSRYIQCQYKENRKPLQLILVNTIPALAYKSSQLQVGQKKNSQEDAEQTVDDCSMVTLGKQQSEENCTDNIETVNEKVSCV

Structure (SMILES)	IC50 (5-HT2A receptors)	melting point	IC50 (5-HT1A receptors; [1])	inhibition at 0.1 µM (5-HT1A receptors; 3H-8-OH-DPAT 1 nM)	IC50 (5-HT1A receptors)	inhibition at 0.1 µM (5-HT2A receptors; read-out: 3H Ketanserin (5-HT2A) binding, % inhibition of binding at 100 nM, at 100 nM, rat cortex membranes)
Nc1ccc2c(c1)C(CN1CCN(c3ccc(Cl)c(Cl)c3)CC1)CC2 (stereo not drawn) [Compound 2h, 1-(6-Aminoindan-1-ylmethyl)-4-(3,4-dichlorophenyl)piperazine]	0.0041 µM	156 to 158 °C	–	19%	–	–
CC(=O)Nc1ccc2c(c1)C(CN1CCC(c3ccc(F)cc3)CC1)CC2 (stereo not drawn) [Compound 4a, 1-(6-Acetylaminoindan-1-ylmethyl)-4-(4-fluorophenyl)piperidine]	0.004 µM	159 to 162 °C	0.011 µM	–	–	–
CC(=O)Nc1ccc2c(c1)C(CN1CCN(c3ccc(F)cc3)CC1)CC2 (stereo not drawn) [Compound 4b, 1-(6-Acetylaminoindan-1-ylmethyl)-4-(4-fluorophenyl)piperazine]	0.0029 µM	179 to 187 °C	0.021 µM	–	–	–
CC(=O)Nc1ccc2c(c1)C(CN1CCC(c3ccc(F)cc3)CC1)CS2 (stereo not drawn) [Compound 4c, 1-(5-Acetylamino-2,3-dihydrobenzothiophen-3-ylmethyl)-4-(4-fluorophenyl)piperidine]	0.0023 µM	140 to 142 °C	0.028 µM	–	–	–
CC(=O)Nc1ccc2c(c1)C(CN1CCN(c3ccc(Cl)cc3)CC1)CC2 (stereo not drawn) [Compound 4d, 1-(6-Acetylaminoindan-1-ylmethyl)-4-(4-chlorophenyl)piperazine]	0.005 µM	191 to 194 °C	0.012 µM	–	–	–
CC(=O)Nc1ccc2c(c1)C(CN1CCN(c3cccc(Cl)c3)CC1)CC2 (stereo not drawn) [Compound 4e, 1-(6-Acetylaminoindan-1-ylmethyl)-4-(3-chlorophenyl)piperazine]	0.005 µM	176 to 178 °C	0.038 µM	–	–	–
CC(=O)Nc1ccc2c(c1)C(CN1CC=C(c3ccc(F)cc3)CC1)CC2 (stereo not drawn) [Compound 4h, 1-(6-Acetylaminoindan-1-ylmethyl)-4-(4-fluorophenyl)-1,2,3,6-tetrahydropyridine]	0.0028 µM	156 to 161 °C	0.011 µM	–	–	–
CS(=O)(=O)Nc1ccc2c(c1)C(CN1CCC(c3ccc(F)cc3)CC1)CC2 (stereo not drawn) [Compound 4i, 4-(4-Fluorophenyl)-1-(6-methansulfonylaminoindan-1-ylmethyl)piperidine]	0.0021 µM	152 to 155 °C	0.5 µM	–	–	–
O=C(Nc1ccc2c(c1)C(CN1CCC(c3ccc(F)cc3)CC1)CC2)C1CC1 (stereo not drawn) [Compound 4j, 1-(6-Cyclopropylcarbonylaminoindan-1-ylmethyl)-4-(4-fluorophenyl)piperidine]	0.015 µM	134 to 140 °C	0.045 µM	–	–	–
O=C(Nc1ccc2c(c1)C(CN1CCC(c3ccc(F)cc3)CC1)CC2)C1CCCC1 (stereo not drawn) [Compound 4k, 1-(6-Cyclopentylcarbonylaminoindan-1-ylmethyl)-4-(4-fluorophenyl)piperidine]	0.03 µM	177 to 178 °C	0.24 µM	–	–	–
CC(=O)Nc1ccc2c(c1)C(CN1CCC(c3ccc(C)cc3)CC1)CC2 (stereo not drawn) [Compound 4n, 1-(6-Acetylaminoindan-1-ylmethyl)-4-(4-methylphenyl)piperidine]	0.0039 µM	173 to 175 °C	0.027 µM	–	–	–
CC(=O)Nc1ccc2c(c1)C(CN1CCN(c3ccc(Cl)c(Cl)c3)CC1)CC2 (stereo not drawn) [Compound 4o, 1-(6-Acetylaminoindan-1-ylmethyl)-4-(3,4-dichlorophenyl)piperazine]	0.051 µM	160 to 163 °C	0.011 µM	–	–	–
O=C(Nc1ccc(F)cc1)Nc1ccc2c(c1)C(CN1CCC(c3ccc(F)cc3)CC1)CC2 (stereo not drawn) [Compound 5b, 1-[6-(4-Fluorophenyl)aminocarbonylaminoindan-1-ylmethyl]-4-(4-fluorophenyl)-piperidine]	0.037 µM	235 to 238 °C	> 100 µM	–	–	–
CN(C)C(=S)Nc1ccc2c(c1)C(CN1CCC(c3ccc(F)cc3)CC1)CC2 (stereo not drawn) [Compound 6b, 1-(6-Dimethylaminothiocarbonylaminoindan-1-ylmethyl)-4-(4-fluorophenyl)piperidine]	0.0067 µM	175 to 180 °C	1.2 µM	–	–	–
O=C(Nc1ccc2c(c1)C(CN1CCC(c3ccc(F)cc3)CC1)CC2)N1CCCC1 (stereo not drawn) [Compound 6c, 4-(4-fluorophenyl)-1-[6-(1-pyrrolidinyl)carbonylaminoindan-1-ylmethyl]piperidine]	0.0099 µM	190 to 193 °C	8.2 µM	–	–	–
CC(=O)Nc1ccc2c(c1)C(CN1CC=C(c3c[nH]c4cc(Cl)ccc34)CC1)CC2 (stereo not drawn) [Compound 11e, 3-[1-(6-Acetylaminoindan-1-ylmethyl)-1,2,3,6-tetrahydropyridin-4-yl]-6-chloro-1H-indole]	0.13 µM	–	–	–	0.027 µM	–
CC(=O)Nc1ccc2c(c1)C(CN1CCC(c3c[nH]c4cc(Cl)ccc34)CC1)CC2 (stereo not drawn) [Compound 11f, 3-[1-(6-Acetylaminoindan-1-ylmethyl)piperidin-4-yl]-6-chloro-1H-indole]	0.021 µM	–	0.008 µM	–	–	–
CC(=O)Nc1ccc2c(c1)C(CN1CC=C(c3c[nH]c4ccc(Cl)cc34)CC1)CC2 (stereo not drawn) [Compound 11g, 3-[1-(6-Acetylaminoindan-1-ylmethyl)-1,2,3,6-tetrahydropyridin-4-yl]-5-chloro-1H-indole]	0.18 µM	–	–	–	0.026 µM	–
CC(=O)Nc1ccc2c(c1)C(CN1CC=C(c3cn(C)c4cc(Cl)ccc34)CC1)CC2 (stereo not drawn) [Compound 15a, 3-[1-(6-Acetylaminoindan-1-ylmethyl)-1,2,3,6-tetrahydropyridin-4-yl]-6-chloro-1-methyl-1H-indole]	–	189 to 193 °C	0.091 µM	–	–	25%
CC(=O)Nc1ccc2c(c1)C(CN1CCC(c3cn(C)c4cc(Cl)ccc34)CC1)CC2 (stereo not drawn) [Compound 15b, 3-[1-(6-Acetylaminoindan-1-ylmethyl)piperidin-4-yl]-6-chloro-1-m ethyl-1H-indole]	0.3 µM	–	–	25%	–	–

Continued, in another order:

IC50 (5-HT2A receptors)	melting point	IC50 (5-HT1A receptors; [1])	Structure (SMILES)	inhibition at 0.1 µM (5-HT1A receptors; 3H-8-OH-DPAT 1 nM)	IC50 (5-HT1A receptors)	inhibition at 0.1 µM (5-HT2A receptors; read-out: 3H Ketanserin (5-HT2A) binding, % inhibition of binding at 100 nM, at 100 nM, rat cortex membranes)
0.0035 µM	–	0.34 µM	O=C1CCCN1c1ccc2c(c1)C(CN1CCC(c3ccc(F)cc3)CC1)CC2 (stereo not drawn) [Compound 12a, 4-(4-Fluorophenyl)-1-[6-(1-pyrrolidin-2-onyl)indan-1-ylmethyl]piperidine]	–	–	–
0.0016 µM	–	0.17 µM	CNc1ccc2c(c1)C(CN1CCC(c3ccc(F)cc3)CC1)CC2 (stereo not drawn) [Compound 16a, 4-(4-Fluorophenyl)-1-(6-methylaminoindan-1-ylmethyl)piperidine]	–	–	–
